Assay results as given in US20240408086A1, “USE OF LUVADAXISTAT FOR THE TREATMENT OF COGNITIVE IMPAIRMENT” (TAKEDA PHARMACEUTICAL COMPANY LIMITED, priority 2021, published 2024).

Tested on: adult patients with persistent negative symptoms of schizophrenia
Type: in vivo, human
Source text: To assess changes in cognitive impairment associated with schizophrenia (CIAS), secondary endpoints included the 12-week change from baseline in the Brief Assessment of Cognition in Schizophrenia (BACS) composite score, a measure of cognition across multiple domains, and the Schizophrenia Cognition Rating Scale (SCORS) score, a measure of day-to-day cognitive functioning requiring input from an adult informant. Secondary endpoints were not corrected for multiplicity.
The BACS is specifically designed to measure treatment-related improvements in cognition and includes alternate forms. BACS is a reliable and sensitive measure of cognitive function in schizophrenia. The BACS is a cognition assessment battery that assesses 6 domains of cognitive function found to be consistently impaired in schizophrenia: verbal memory; working memory; motor speed; attention; executive functions; and verbal fluency. The primary measure from each test of the BACS is standardized by creating T-scores whereby the mean of the test session of a matched reference healthy participant is set to 50 and the standard deviation set to 10.

[1] = 50 mg once daily, MMRM, preliminary analysis
[2] = 50 mg once daily, preliminary analysis

O=c1[nH]nc(CCc2ccc(C(F)(F)F)cc2)cc1O [Compound (I), luvadaxistat]
BACS composite score, effect size versus placebo (50 mg once daily, 12 weeks, p=0.031, not corrected for multiplicity): 0.4 | BACS Verbal Memory Cognition Domain, Difference from Placebo for Week 12, LS Mean (SE) (50 mg once daily, MMRM, one-sided unadjusted p 0.038, preliminary analysis): 2.6 (1.43) | BACS Composite Score, Difference from Placebo for Week 12, LS Mean (SE) (50 mg once daily, MMRM, one-sided unadjusted p 0.046, preliminary analysis): 1.9 (1.15) | BACS Verbal Memory Cognition Domain, Difference from Placebo for Week 6, LS Mean (SE) (50 mg once daily, MMRM, one-sided unadjusted p 0.071, preliminary analysis): 1.9 (1.29) | BACS Composite Score, Difference from Placebo for Week 6, LS Mean (SE) (50 mg once daily, MMRM, one-sided unadjusted p 0.096, preliminary analysis): 1.3 (1.01) | BACS Motor Speed Cognition Domain, Difference from Placebo for Week 12, LS Mean (SE) (50 mg once daily, MMRM, one-sided unadjusted p 0.101, preliminary analysis): 1.5 (1.17) | BACS Working Memory Cognition Domain, Difference from Placebo for Week 12, LS Mean (SE) (50 mg once daily, MMRM, one-sided unadjusted p 0.413, preliminary analysis): 0.3 (1.34) | BACS Motor Speed Cognition Domain, Difference from Placebo for Week 6, LS Mean (SE) (50 mg once daily, MMRM, one-sided unadjusted p 0.440, preliminary analysis): 0.2 (1.26) | BACS Working Memory Cognition Domain, Difference from Placebo for Week 6, LS Mean (SE) (50 mg once daily, MMRM, one-sided unadjusted p 0.507, preliminary analysis): 0.0 (1.15) | BACS Composite Score, Adjusted Change from Baseline to Week 6, LS Mean (SE) [1]: 0.9 (0.81) | BACS Composite Score, Adjusted Change from Baseline to Week 12, LS Mean (SE) [1]: 2.7 (0.92) | BACS Motor Speed Cognition Domain, Adjusted Change from Baseline to Week 6, LS Mean (SE) [1]: 0.1 (1.00) | BACS Motor Speed Cognition Domain, Adjusted Change from Baseline to Week 12, LS Mean (SE) [1]: 1.0 (0.93) | BACS Verbal Memory Cognition Domain, Adjusted Change from Baseline to Week 6, LS Mean (SE) [1]: 0.6 (1.04) | BACS Verbal Memory Cognition Domain, Adjusted Change from Baseline to Week 12, LS Mean (SE) [1]: 1.9 (1.13) | BACS Working Memory Cognition Domain, Adjusted Change from Baseline to Week 6, LS Mean (SE) [1]: 0.0 (0.92) | BACS Working Memory Cognition Domain, Adjusted Change from Baseline to Week 12, LS Mean (SE) [1]: 0.9 (1.06) | BACS composite score, 12-week LS mean change from baseline (50 mg once daily, placebo 2.3): 4.6 | BACS Composite Score, Change from Baseline to Week 6, Mean (SD) [2]: 1.7 (5.81) | BACS Composite Score, Change from Baseline to Week 6, Median [2]: 2.0 | BACS Composite Score, Change from Baseline to Week 12, Mean (SD) [2]: 3.8 (5.91) | BACS Composite Score, Change from Baseline to Week 12, Median [2]: 3.0 | BACS Composite Score, Week 6, Mean (SD) [2]: 35.4 (14.53) | BACS Composite Score, Week 6, Median [2]: 34.0 | BACS Composite Score, Week 12, Mean (SD) [2]: 37.7 (13.30) | BACS Composite Score, Week 12, Median [2]: 37.5 | BACS Motor Speed Cognition Domain, Change from Baseline to Week 6, Mean (SD) [2]: 1.7 (5.73) | BACS Motor Speed Cognition Domain, Change from Baseline to Week 6, Median [2]: 1.0 | BACS Motor Speed Cognition Domain, Change from Baseline to Week 12, Mean (SD) [2]: 2.6 (6.80) | BACS Motor Speed Cognition Domain, Change from Baseline to Week 12, Median [2]: 1.0 | BACS Motor Speed Cognition Domain, Week 6, Mean (SD) [2]: 40.6 (13.61) | BACS Motor Speed Cognition Domain, Week 6, Median [2]: 40.0 | BACS Motor Speed Cognition Domain, Week 12, Mean (SD) [2]: 42.0 (12.93) | BACS Motor Speed Cognition Domain, Week 12, Median [2]: 41.5 | BACS Verbal Memory Cognition Domain, Change from Baseline to Week 6, Mean (SD) [2]: 1.6 (7.40) | BACS Verbal Memory Cognition Domain, Change from Baseline to Week 6, Median [2]: 0.0 | BACS Verbal Memory Cognition Domain, Change from Baseline to Week 12, Mean (SD) [2]: 3.2 (7.87) | BACS Verbal Memory Cognition Domain, Change from Baseline to Week 12, Median [2]: 4.0 | BACS Verbal Memory Cognition Domain, Week 6, Mean (SD) [2]: 41.7 (11.59) | BACS Verbal Memory Cognition Domain, Week 6, Median [2]: 44.5 | BACS Verbal Memory Cognition Domain, Week 12, Mean (SD) [2]: 42.9 (12.41) | BACS Verbal Memory Cognition Domain, Week 12, Median [2]: 43.5 | BACS Working Memory Cognition Domain, Change from Baseline to Week 6, Mean (SD) [2]: 1.0 (6.60) | BACS Working Memory Cognition Domain, Change from Baseline to Week 6, Median [2]: 0.0 | BACS Working Memory Cognition Domain, Change from Baseline to Week 12, Mean (SD) [2]: 2.1 (6.61) | BACS Working Memory Cognition Domain, Change from Baseline to Week 12, Median [2]: 1.0 | BACS Working Memory Cognition Domain, Week 6, Mean (SD) [2]: 40.8 (14.10) | BACS Working Memory Cognition Domain, Week 6, Median [2]: 42.0 | BACS Working Memory Cognition Domain, Week 12, Mean (SD) [2]: 42.0 (13.95) | BACS Working Memory Cognition Domain, Week 12, Median [2]: 42.5 | BACS Attention Cognition Domain, Change from Baseline to Week 6, Mean (SD) (50 mg, Week 6): 0.9 (7.74) | BACS Attention Cognition Domain, Change from Baseline to Week 6, Median (50 mg, Week 6): 0.0 | BACS Attention Cognition Domain, Week 6, Mean (SD) (50 mg, Week 6): 36.0 (14.78) | BACS Attention Cognition Domain, Week 6, Median (50 mg, Week 6): 34.0 | BACS Executive Functions Cognition Domain, Change from Baseline to Week 6, Mean (SD) (50 mg, Week 6): 1.6 (10.55) | BACS Executive Functions Cognition Domain, Change from Baseline to Week 6, Median (50 mg, Week 6): 2.0 | BACS Executive Functions Cognition Domain, Week 6, Mean (SD) (50 mg, Week 6): 44.9 (11.66) | BACS Executive Functions Cognition Domain, Week 6, Median (50 mg, Week 6): 48.5 | BACS Verbal Fluency Cognition Domain, Change from Baseline to Week 6, Mean (SD) (50 mg, Week 6): −0.2 (5.57) | BACS Verbal Fluency Cognition Domain, Change from Baseline to Week 6, Median (50 mg, Week 6): 0.0 | BACS Verbal Fluency Cognition Domain, Week 6, Mean (SD) (50 mg, Week 6): 39.9 (10.86) | BACS Verbal Fluency Cognition Domain, Week 6, Median (50 mg, Week 6): 38.0 | BACS Attention Cognition Domain, Adjusted Change from Baseline to Week 6, LS Mean (SE) (50 mg, Week 6, MMRM): 1.0 (0.90)
